Data set [1] concerns the target HR1–HR2 interaction (MBP-HR1 / ALP-HR2) of SARS-CoV-2 (Severe acute respiratory syndrome coronavirus 2, UniProt P0DTC2). As to the kind of experiment: SPICA: inhibition of the HR1–HR2 interaction. To be noted: for inhibition of the HR1–HR2 interaction of SARS-CoV-2 (in words): negative controls; for IC50: pIC50 ± SD, 20 nM MBP-HR1 coated, 5 nM ALP-HR2, MES pH 6.4, OD630, SD. Type of data set: binding.

In the next data set the test system is VeroE6/TMPRSS2 cells. As to the kind of experiment: Cytotoxicity, MTT assay. Type of data set: cell-based, African green monkey. The note with it: mock cell viability, 3 days. (In general: Tetrazolium dyes change colour on reduction, which living cells bring about.)

For `CCC(CC)COC(=O)[C@H](C)N[P@](=O)(OC[C@H]1O[C@@](C#N)(c2ccc3c(N)ncnn23)[C@H](O)[C@@H]1O)Oc1ccccc1` [remdesivir], the “inhibition of the HR1–HR2 interaction of SARS-CoV-2 (in words)” value in data set [1] is “no inhibitory effect”. In the data set with VeroE6/TMPRSS2 cells, the “pCC50 ± SD” value is 4.2 ± 0.1. Turning to `CC[C@H](C)[C@H](NC(=O)[C@H](C)NC(=O)[C@H](CCC(=O)O)NC(=O)[C@H](CCC(=O)O)NC(=O)[C@H](CC(C)C)NC(=O)[C@H](CCCCN)NC(=O)[C@H](CCCCN)NC(=O)[C@H](CCSC)NC(=O)[C@H](CCC(=O)O)NC(=O)[C@H](Cc1ccc(O)cc1)NC(=O)[C@H](CCC(=O)O)NC(=O)[C@H](CC(C)C)NC(=O)[C@H](CC(=O)O)NC(=O)[C@H](CC(C)C)NC(=O)[C@H](Cc1ccccc1)NC(=O)[C@@H](NC(=O)[C@@H](NC(=O)[C@H](CC(N)=O)NC(=O)[C@@H](NC(=O)[C@H](CCC(N)=O)NC(=O)[C@H](CC(=O)O)NC(=O)[C@H](CC(C)C)NC(=O)[C@@H](N)CO)[C@@H](C)CC)C(C)C)[C@@H](C)O)C(=O)N[C@@H](CCCCN)C(=O)N[C@@H](CCCCN)C(=O)N[C@@H](CC(C)C)C(=O)N[C@@H](CCC(=O)O)C(=O)N[C@@H](CCC(=O)O)C(=O)N[C@@H](CO)C(=O)N[C@@H](Cc1ccc(O)cc1)C(=O)N[C@H](C(=O)N[C@@H](CC(=O)O)C(=O)N[C@@H](CC(C)C)C(=O)N[C@@H](CCCCN)C(=O)N[C@@H](CCC(=O)O)C(=O)N[C@@H](CC(C)C)C(=O)O)[C@@H](C)CC` [EK1], in data set [1], the IC50 came out at 0.001 µM. As to `Cc1nnnn1N=Cc1ccc(O)c(C(c2ccc(O)cc2)c2cc(C=Nn3nnnc3C)ccc2O)c1` (centres unmarked) [VP-14637], in data set [1], the “inhibition of the HR1–HR2 interaction of SARS-CoV-2 (in words)” value was “failed to block the HR1–HR2 interaction” and inhibition was half-maximal at 25.1 µM (IC50).

By IC50 is commonly meant the concentration needed to halve the response being measured.

(Values after publication PMC10849125 (RSC Chemical Biology, 2023).)
